Seven molecules from ChEMBL document CHEMBL1201862, “PubChem BioAssay data set” (2004) can be followed below.

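1) Cells in 96-well plates. 2) Compound, 48 h, 5 concentrations. 3) Linear interpolation between surrounding doses. 4) Unreached endpoint = highest concentration. Abbreviation: GI50, concentration required for 50% inhibition of growth.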 Activity calls are given as the source filed them. Rule as the data show it: active = GI50 up to about 1.1 µM and inactive = higher.

Test systems include OVCAR-5; CCRF-CEM; OVCAR-4; RPMI-8226; CAKI-1; NCI/ADR-RES; TK-10; U-251; SK-MEL-2; HCT-116; Hs-578T; KM12; DU-145; 786-0; SW-620; ACHN; NCI-H460; UO-31; HOP-62.
What all share (test): NCI-60 cell line screen, 48 h

Regarding `O=C1Nc2ccccc2/C1=C1/Nc2ccccc2/C1=N\OCCOC1OCC(O)C(O)C1O` (stereo not drawn), the GI50 with OVCAR-5 is > 100 µM (inactive); in the assay with CCRF-CEM, > 100 µM (inactive); in the assay with OVCAR-4, > 100 µM (inactive); in the assay on RPMI-8226 it was > 100 µM (inactive); with CAKI-1 it was 6.78 µM (inactive); with NCI/ADR-RES it was > 100 µM (inactive). Also, the GI50 is 81.3 µM (inactive) with TK-10; > 100 µM (inactive) with U-251; 3.49 µM (inactive) in the assay on SK-MEL-2; 32.8 µM (inactive) in the assay with HCT-116; > 100 µM (inactive) with Hs-578T; 0.453 µM (active) with KM12. The GI50 in the assay with DU-145, with 786-0, in the assay on SW-620, with ACHN, in the assay on NCI-H460 and in the assay with UO-31 was > 100 µM (inactive) each time. The GI50 in the assay on HOP-62 is 6.38 µM (inactive).

With `O=C1NCN(c2ccccc2)C12CCN(CCCN1CCN(CCOC(c3ccccc3)c3ccccc3)CC1)CC2`, the GI50 was 5.08 µM (inactive) with OVCAR-5; 0.859 µM (active) in the assay with CCRF-CEM; 3.53 µM (inactive) in the assay on OVCAR-4; 1.67 µM (inactive) with RPMI-8226; 3.78 µM (inactive) in the assay on CAKI-1; 4.54 µM (inactive) in the assay on NCI/ADR-RES. In addition, the GI50 in the assay with TK-10 is 3.83 µM (inactive); in the assay on U-251 it was 4.07 µM (inactive); with SK-MEL-2 it was 3.11 µM (inactive); with HCT-116, 2.33 µM (inactive); in the assay with Hs-578T, 3.48 µM (inactive); in the assay on KM12, 2.87 µM (inactive). Also, the GI50 with DU-145 was 3.59 µM (inactive); with 786-0, 0.753 µM (active); with SW-620, 2.62 µM (inactive); in the assay with ACHN, 2.5 µM (inactive); with NCI-H460, 3.84 µM (inactive); in the assay on UO-31, 1.5 µM (inactive). The GI50 in the assay on HOP-62 is 3.25 µM (inactive).

With `CN(C)c1ccc(/C=C(\NC(=O)c2ccccc2)c2nc3ccccc3c(=O)o2)cc1`, the GI50 in the assay with OVCAR-5, in the assay with CCRF-CEM, with OVCAR-4, in the assay with RPMI-8226, in the assay on CAKI-1 and in the assay with NCI/ADR-RES was > 100 µM (inactive) each time. Moreover, the GI50 is > 100 µM (inactive) in the assay on TK-10; 82 µM (inactive) in the assay with U-251; > 100 µM (inactive) in the assay on SK-MEL-2; > 100 µM (inactive) in the assay on HCT-116; > 100 µM (inactive) in the assay with Hs-578T; > 100 µM (inactive) in the assay on KM12. Besides, the GI50 with DU-145, in the assay on 786-0, with SW-620, with ACHN, in the assay with NCI-H460 and with UO-31 was > 100 µM (inactive) each time. Also, the GI50 with HOP-62 was 71.1 µM (inactive).

For `N=C(N)N/N=C/c1cc(Cl)cc(Cl)c1O`, the GI50 is 78.2 µM (inactive) in the assay with OVCAR-5; 43.4 µM (inactive) with CCRF-CEM; 46.9 µM (inactive) with OVCAR-4; 57.3 µM (inactive) in the assay with RPMI-8226; 38.7 µM (inactive) with CAKI-1; 35.5 µM (inactive) with NCI/ADR-RES. The GI50 in the assay with TK-10 is 69 µM (inactive); with U-251, 48.5 µM (inactive); with SK-MEL-2, 34.1 µM (inactive); with HCT-116 it was 57 µM (inactive); in the assay with Hs-578T, 55.7 µM (inactive); in the assay on KM12, 45.1 µM (inactive). In addition, the GI50 in the assay with DU-145 is 75 µM (inactive); with 786-0, 76.7 µM (inactive); in the assay with SW-620, 97.5 µM (inactive); in the assay on ACHN, 56.6 µM (inactive); with NCI-H460 it was 69.5 µM (inactive); in the assay on UO-31, 29.7 µM (inactive). Besides, the GI50 in the assay with HOP-62 was > 100 µM (inactive).

Regarding `CC(=O)OCC(OC(C)=O)C(OC(C)=O)C(OC(C)=O)C(C=NN(C(C)=O)S(=O)(=O)c1ccc(/C=C2\NC(=O)N(C)C2=O)cc1)OC(C)=O` (stereo not drawn), the GI50 with OVCAR-5 was 83.2 µM (inactive); with CCRF-CEM, 13 µM (inactive); with OVCAR-4 it was 53.5 µM (inactive); in the assay with RPMI-8226, 24.2 µM (inactive); in the assay on CAKI-1, 40.2 µM (inactive); with NCI/ADR-RES it was > 100 µM (inactive). Further, the GI50 in the assay on TK-10 was 3.35 µM (inactive); in the assay with U-251, 32.1 µM (inactive); in the assay with SK-MEL-2, 31.5 µM (inactive); with HCT-116 it was 16.9 µM (inactive); with Hs-578T, 32.9 µM (inactive); in the assay with KM12 it was 42.4 µM (inactive). Also, the GI50 with DU-145 was 33 µM (inactive); with 786-0, 22.1 µM (inactive); in the assay on SW-620, 34.4 µM (inactive); in the assay on ACHN, 34.5 µM (inactive); in the assay on NCI-H460, 22.1 µM (inactive); in the assay on UO-31 it was 57.5 µM (inactive). In the assay on HOP-62, the GI50 is 85.1 µM (inactive).

With `O=C(O)C(Cc1c[nH]c2ccccc12)C(=O)NO` (stereo not drawn), the GI50 in the assay with OVCAR-5 is > 100 µM (inactive); in the assay with CCRF-CEM, 39.8 µM (inactive); in the assay with OVCAR-4, > 100 µM (inactive); with RPMI-8226 it was > 100 µM (inactive); in the assay on CAKI-1, > 100 µM (inactive); with NCI/ADR-RES, > 100 µM (inactive). In addition, the GI50 in the assay on TK-10 is > 100 µM (inactive); with U-251 it was 49.8 µM (inactive); with SK-MEL-2, > 100 µM (inactive); in the assay on HCT-116, > 100 µM (inactive); in the assay with Hs-578T, > 100 µM (inactive); in the assay on KM12, > 100 µM (inactive). For the same molecule, the GI50 in the assay on DU-145 is > 100 µM (inactive); with 786-0, > 100 µM (inactive); with SW-620, 95.5 µM (inactive); with ACHN, > 100 µM (inactive); with NCI-H460, > 100 µM (inactive); in the assay with UO-31, > 100 µM (inactive). Also, the GI50 in the assay on HOP-62 was > 100 µM (inactive).

Take `O=C(Nc1ccccc1)c1cc2cc(CCl)ccc2oc1=O`: the GI50 with OVCAR-5, in the assay on CCRF-CEM, with OVCAR-4, in the assay on RPMI-8226, in the assay on CAKI-1 and with NCI/ADR-RES was > 100 µM (inactive) in each case. The GI50 in the assay with TK-10 is 39.8 µM (inactive); in the assay with U-251, 47 µM (inactive); with SK-MEL-2, 4.8 µM (inactive); in the assay with HCT-116, > 100 µM (inactive); with Hs-578T it was 15 µM (inactive); with KM12, > 100 µM (inactive). In addition, the GI50 with DU-145 was > 100 µM (inactive); with 786-0, 48.8 µM (inactive); in the assay on SW-620, > 100 µM (inactive); in the assay with ACHN it was 17 µM (inactive); in the assay with NCI-H460, > 100 µM (inactive); with UO-31 it was > 100 µM (inactive). For the same molecule, in the assay with HOP-62, the GI50 is 81.7 µM (inactive).
